Source: patent US11840686B2, “Modulation of prekallikrein (PKK) expression” (Ionis Pharmaceuticals, Inc., priority 2013, dated 2023)
Strand notation (5' to 3'): a small letter for the sugar, then the base; units joined by * are phosphorothioate-linked, units joined directly phosphodiester-linked; [ ] holds rarer units or linkages, { } end groups; capitals alone tell only the bases. e = 2'-O-(2-methoxyethyl) (MOE); [5mC] = 5-methylcytosine; d = 2'-deoxy (DNA)

Columns and labels:
PKK mRNA = PKK mRNA in cynomolgus monkey liver (Example 8); type: in vivo; details: 40 mg/kg s.c., loading then weekly to week 13; day 87 or 88, 48 h after final dose
Experimental: Cynomolgus monkeys were treated with ISIS antisense oligonucleotides selected from studies described above. Antisense oligonucleotide efficacy and tolerability were evaluated. The human antisense oligonucleotides tested are cross-reactive with the rhesus genomic sequence (GENBANK Accession No. NW_001118167.1 truncated from nucleotides 2358000 to 2391000 and designated herein as SEQ ID NO: 18).
On day 87 or 88, 48 hours after the final dose, RNA was extracted from liver tissue for real-time PCR analysis of PKK using primer probe set RTS3455 (forward sequence […], designated herein as SEQ ID NO: 23; reverse sequence […], designated herein as SEQ ID NO: 24; probe sequence […], designated herein as SEQ ID NO: 25). The results were normalized to the housekeeping gene, Cyclophilin. Results are presented as percent inhibition of PKK mRNA, relative to PBS control.

human PKK mRNA [1] = assay: Dose-dependent antisense inhibition of human PKK in HepaRG cells, 0.19-5.00 uM (Example 5); type: cell-based; details: for percent inhibition of PKK mRNA, 0.19 μM: 0.19 μM antisense oligonucleotide; for percent inhibition of PKK mRNA, 0.56 μM: 0.56 μM antisense oligonucleotide; for percent inhibition of PKK mRNA, 1.67 μM: 1.67 μM antisense oligonucleotide; for percent inhibition of PKK mRNA, 5.00 μM: 5.00 μM antisense oligonucleotide
In short: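 PKK mRNA knockdown was measured by real-time PCR (primer probe set RTS3454) about 16 h after electroporating 20,000 HepaRG cells per well with oligonucleotide at four doses from 0.19 to 5.00 μM. Levels were adjusted to RIBOGREEN-measured total RNA, and IC50 values were calculated.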

human PKK mRNA [2] = assay: Human PKK mRNA in liver of human KLKB1 transgenic mice (Example 7); type: in vivo; details: twice a week for 3 weeks
Experimental: (§1) Transgenic mice containing a 37,390 base pair fragment of the human KLKB1 gene sequence (chromosome 4: position 187148672-187179625, accession no: NC_000004.11) were treated with ISIS antisense oligonucleotides selected from studies described above, which were evaluated for efficacy in this model.
(§2) Groups of transgenic mice were injected subcutaneously twice a week for 3 weeks with 2.5 mg/kg/week, 5.0 mg/kg/week, 10 mg/kg/week or 20 mg/kg/week of ISIS 546232, ISIS 546251, ISIS 546254, ISIS 546343, ISIS 546828, ISIS 547455, ISIS 547457, ISIS 547927, and ISIS 548048. One group of transgenic mice was injected subcutaneously twice a week for 3 weeks with PBS. Mice were euthanized 48 hours after the last dose, and organs and plasma were harvested for further analysis.
To evaluate the effect of ISIS oligonucleotides on target reduction, RNA was extracted from liver tissue for real-time PCR analysis of human PKK. Results are presented as percent inhibition of PKK mRNA, relative to PBS control.

human PKK mRNA [3] = assay: Antisense inhibition of human PKK mRNA in HepaRG cells, 5,000 nM (Example 2); type: cell-based; details: electroporation with 5,000 nM antisense oligonucleotide, approx. 24 hours, PKK mRNA by RT-PCR (RTS3454), relative to untreated control cells
In short: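 Chimeric MOE gapmers with full phosphorothioate backbones were tested once at 5,000 nM in electroporated HepaRG cells. After about 24 hours, quantitative PCR measured PKK mRNA relative to untreated control cells.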

PKK protein = assay: Plasma PKK protein levels in human KLKB1 transgenic mice (Example 7); type: in vivo; details: plasma, twice a week for 3 weeks
Experimental: as §1, §2
Plasma PKK protein levels were evaluated in all groups. Results are presented as percent inhibition of PKK protein, relative to PBS control.

[4] = HepaRG cells, electroporation, approximately 16 hours, Table 39
[5] = HepaRG cells, electroporation, approximately 16 hours, Table 36
[6] = HepaRG cells, electroporation, approximately 16 hours, Table 41
[7] = 4 point dose response, HepaRG cells, Table 41
[8] = Table 34, HepaRG, electroporation, ~16 h
[9] = Table 34, PKK mRNA, HepaRG, electroporation, ~16 h
[10] = Table 9 experiment, HepaRG cells, 20,000 cells per well
[11] = Table 10 experiment, HepaRG cells, 20,000 cells per well

Substance	% inhibition of PKK mRNA in the cynomolgus monkey liver relative to the PBS control (PKK mRNA) [%]	percent inhibition of PKK mRNA, 0.19 μM (human PKK mRNA [1]; HepaRG cells) [%]	percent inhibition of PKK mRNA, 0.56 μM (human PKK mRNA [1]; HepaRG cells) [%]	percent inhibition of PKK mRNA, 1.67 μM (human PKK mRNA [1]; HepaRG cells) [%]	percent inhibition of PKK mRNA, 5.00 μM (human PKK mRNA [1]; HepaRG cells) [%]	IC50 (human PKK mRNA [1]; HepaRG cells, 0.19-5.00 μM) [nM]	% inhibition of PKK mRNA in the transgenic mice liver relative to the PBS control (human PKK mRNA [2]; 2.5 mg/kg/week sc) [%]	% inhibition of PKK mRNA in the transgenic mice liver relative to the PBS control (human PKK mRNA [2]; 5 mg/kg/week sc) [%]	% inhibition of PKK mRNA in the transgenic mice liver relative to the PBS control (human PKK mRNA [2]; 10 mg/kg/week sc) [%]	% inhibition of PKK mRNA in the transgenic mice liver relative to the PBS control (human PKK mRNA [2]; 20 mg/kg/week sc) [%]	% inhibition (human PKK mRNA [3]; Table 7, HepaRG cells) [%]	% inhibition of PKK protein levels in the transgenic mice relative to the PBS control (PKK protein; 2.5 mg/kg/week sc) [%]	% inhibition of PKK protein levels in the transgenic mice relative to the PBS control (PKK protein; 5 mg/kg/week sc) [%]	% inhibition of PKK protein levels in the transgenic mice relative to the PBS control (PKK protein; 10 mg/kg/week sc) [%]	% inhibition of PKK protein levels in the transgenic mice relative to the PBS control (PKK protein; 20 mg/kg/week sc) [%]	percent inhibition of PKK at 5.00 μM (human PKK mRNA [1]; [6]) [%]	percent inhibition of PKK at 0.19 0μM (human PKK mRNA [1]; [6]) [%]	percent inhibition of PKK at 0.56 0μM (human PKK mRNA [1]; [6]) [%]	percent inhibition of PKK at 1.67 1μM (human PKK mRNA [1]; [6]) [%]	IC50 (human PKK mRNA [1]; [7]) [nM]	also measured
546232 (eA*eG*eG*eA*eA*d[5mC]*dT*dT*dG*dG*dT*dG*dT*dG*d[5mC]*e[5mC]*eA*e[5mC]*eT*eT) [compound 546232]	88	0	74	95	96	200	57	53	30	84	86	0	6	33	79						percent inhibition of PKK at 0.19 μM (human PKK mRNA [1]; [4]): 49%; percent inhibition of PKK at 0.56 μM (human PKK mRNA [1]; [4]): 50%; percent inhibition of PKK at 1.67 μM (human PKK mRNA [1]; [4]): 94%; percent inhibition of PKK at 5.00 μM (human PKK mRNA [1]; [4]): 97%; IC50 (human PKK mRNA [1]; 4 point dose response, HepaRG cells, Table 39): 200 nM
546251 (eG*eG*e[5mC]*eA*eA*dA*d[5mC]*dA*dT*dT*d[5mC]*dA*d[5mC]*dT*d[5mC]*e[5mC]*eT*eT*eT*eA) [compound 546251]	90	19	45	91	97	600	13	51	66	79	92	22	30	52	69						percent inhibition of PKK at 0.19 μM (human PKK mRNA [1]; [5]): 31%; percent inhibition of PKK at 0.56 μM (human PKK mRNA [1]; [5]): 60%; percent inhibition of PKK at 1.67 μM (human PKK mRNA [1]; [5]): 99%; percent inhibition of PKK at 5.00 μM (human PKK mRNA [1]; [5]): 89%; IC50 (human PKK mRNA [1]; 4 point dose response, HepaRG cells, Table 36): 500 nM
546254 (eT*eG*e[5mC]*eA*eA*dG*dT*d[5mC]*dT*d[5mC]*dT*dT*dG*dG*d[5mC]*eA*eA*eA*e[5mC]*eA) [compound 546254]	88						31	55	84	83		0	36	51	76	95	40	63	84	300	percent inhibition of PKK at 0.19 μM (human PKK mRNA [1]; [8]): 51%; percent inhibition of PKK at 0.56 μM (human PKK mRNA [1]; [8]): 66%; percent inhibition of PKK at 1.67 μM (human PKK mRNA [1]; [8]): 80%; percent inhibition of PKK at 5.00 μM (human PKK mRNA [1]; [8]): 91%; IC50 (human PKK mRNA [1]; [9]): 200 nM; % inhibition (human PKK mRNA [3]; Table 8, HepaRG cells): 95%
546343 (antisense e[5mC]*e[5mC]*e[5mC]*e[5mC]*e[5mC]*dT*dT*d[5mC]*dT*dT*dT*dA*dT*dA*dG*e[5mC]*e[5mC]*eA*eG*e[5mC]) [compound 546343]	74						46		66	86		0		38	79	95	37	32	83	400	percent inhibition of PKK at 0.19 μM (human PKK mRNA [1]; [8]): 28%; percent inhibition of PKK at 0.56 μM (human PKK mRNA [1]; [8]): 64%; percent inhibition of PKK at 1.67 μM (human PKK mRNA [1]; [8]): 87%; percent inhibition of PKK at 5.00 μM (human PKK mRNA [1]; [8]): 87%; IC50 (human PKK mRNA [1]; [9]): 400 nM; % inhibition (human PKK mRNA [3]; [10]): 97%; % inhibition (human PKK mRNA [3]; [11]): 91%
547455 (antisense eA*eT*eA*eT*e[5mC]*dA*dT*dG*dA*dT*dT*d[5mC]*d[5mC]*d[5mC]*dT*eT*e[5mC]*eT*eG*eA) [compound 547455]	90						0	69	45	62		0	0	32	78						% inhibition (human PKK mRNA [3]; [10]): 88%; % inhibition (human PKK mRNA [3]; [11]): 66%
